The term EC50 denotes the concentration needed to bring the measured effect to its halfway point. The term IC50 denotes the concentration at which inhibition is half-maximal.

Where two headings read alike, the source gives them in different places. Non-standard residues stand in square brackets, D forms with d. Residues, ends and D or L forms follow the SMILES beside them. Phe(3-I) = N[C@@H](Cc1cccc(I)c1)C(=O)O; Phe(4-I) = N[C@@H](Cc1ccc(I)cc1)C(=O)O

Series [1] concerns chymotrypsin. The series is described as follows: Proteolytic degradation assay (chymotrypsin-based protocol). It counts as in vitro ADME. The conditions noted are these: for half-life: chymotrypsin-based protocol (protocol of ref 51), HPLC-MS read-out, Fig. 4b, read-out: t1/2, proteolytic degradation; for protection towards enzymatic degradation (in words): chymotrypsin, after 5–6 h, HPLC-MS profiles. The protocol: Figure 4 Bioactive stapled peptides, biochemical and cellular studies. (a) Structure of stapled peptides 2l (valorphin analogue) and 2m (baratin analogue). (b) Proteolytic degradation assay of stapled peptides 2g and 2h and their linear precursors 1g and 1h. (c) Structure of labelled-stapled peptide 2j Bodipy (left) and the corresponding confocal microscopy image of SH-SY5Y cells treated with compound 2j Bodipy (750 nM). Scale bar, 25 μm (right).
Next, we determined the proteolytic stability of a couple of meaningful stapled peptides, in comparison with their respective linear counterparts. We followed a chymotrypsin-based protocol, previously used to evaluate stapled peptides.

In series [2] the target is ανβ3 integrin receptors (Homo sapiens, UniProt P05106+P06756). In words: Inhibition of cellular adhesion (integrin antagonism). It counts as cell-based. An excerpt: However, it has to be considered that even linear analogues display a much lower potency (10–10^3 times, depending on the targeted integrin) than the parent cilengitide.
Chain of ανβ3 integrin receptors (P06756 31-889 limits assumed): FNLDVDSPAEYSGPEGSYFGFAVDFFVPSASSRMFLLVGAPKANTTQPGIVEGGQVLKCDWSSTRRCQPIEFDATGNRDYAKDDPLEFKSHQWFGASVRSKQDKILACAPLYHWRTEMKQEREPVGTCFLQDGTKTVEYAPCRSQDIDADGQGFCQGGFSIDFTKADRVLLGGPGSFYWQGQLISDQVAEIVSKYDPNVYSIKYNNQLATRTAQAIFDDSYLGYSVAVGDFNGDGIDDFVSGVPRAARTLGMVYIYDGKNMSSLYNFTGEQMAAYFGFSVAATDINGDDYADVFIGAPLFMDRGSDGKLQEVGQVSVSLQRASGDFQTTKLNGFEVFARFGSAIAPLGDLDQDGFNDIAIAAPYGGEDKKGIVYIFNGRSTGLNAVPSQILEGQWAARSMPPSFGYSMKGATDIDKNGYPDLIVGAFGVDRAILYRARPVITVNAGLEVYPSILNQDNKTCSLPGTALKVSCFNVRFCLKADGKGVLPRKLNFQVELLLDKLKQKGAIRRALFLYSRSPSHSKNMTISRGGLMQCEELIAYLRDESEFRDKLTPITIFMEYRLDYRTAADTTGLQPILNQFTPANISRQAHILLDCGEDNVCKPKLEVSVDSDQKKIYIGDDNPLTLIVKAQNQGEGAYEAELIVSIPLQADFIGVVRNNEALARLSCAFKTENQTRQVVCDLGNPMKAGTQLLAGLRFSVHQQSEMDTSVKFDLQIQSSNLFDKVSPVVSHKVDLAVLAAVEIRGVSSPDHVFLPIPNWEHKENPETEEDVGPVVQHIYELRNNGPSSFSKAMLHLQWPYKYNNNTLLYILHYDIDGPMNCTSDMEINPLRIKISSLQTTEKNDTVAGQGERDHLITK
Chain of ανβ3 integrin receptors (P06756 891-1048 partner limits assumed): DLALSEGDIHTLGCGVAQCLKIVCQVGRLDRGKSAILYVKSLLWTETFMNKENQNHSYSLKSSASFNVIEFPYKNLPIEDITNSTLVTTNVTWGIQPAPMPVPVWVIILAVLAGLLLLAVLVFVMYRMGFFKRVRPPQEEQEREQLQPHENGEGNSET
Chain of ανβ3 integrin receptors (P05106 27-788): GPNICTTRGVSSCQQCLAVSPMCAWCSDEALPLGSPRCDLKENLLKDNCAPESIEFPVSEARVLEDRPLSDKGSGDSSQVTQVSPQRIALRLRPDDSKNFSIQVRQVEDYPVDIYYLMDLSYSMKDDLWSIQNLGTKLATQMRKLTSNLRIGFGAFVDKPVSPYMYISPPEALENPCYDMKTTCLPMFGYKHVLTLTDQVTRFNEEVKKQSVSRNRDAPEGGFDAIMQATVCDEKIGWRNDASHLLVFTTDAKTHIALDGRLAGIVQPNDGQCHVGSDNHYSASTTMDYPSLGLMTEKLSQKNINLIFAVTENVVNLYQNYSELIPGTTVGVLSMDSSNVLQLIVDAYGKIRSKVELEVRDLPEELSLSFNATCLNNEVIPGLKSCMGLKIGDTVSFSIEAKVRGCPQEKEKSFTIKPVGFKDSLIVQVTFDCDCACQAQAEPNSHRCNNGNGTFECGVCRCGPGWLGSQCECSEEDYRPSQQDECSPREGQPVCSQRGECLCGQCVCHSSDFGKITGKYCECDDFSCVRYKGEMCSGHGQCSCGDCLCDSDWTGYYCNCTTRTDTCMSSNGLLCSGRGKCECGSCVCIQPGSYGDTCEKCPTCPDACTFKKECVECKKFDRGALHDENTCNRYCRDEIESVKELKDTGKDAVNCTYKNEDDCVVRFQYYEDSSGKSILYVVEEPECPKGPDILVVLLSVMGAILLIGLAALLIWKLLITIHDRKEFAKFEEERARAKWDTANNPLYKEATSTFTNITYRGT
For series [3], the system named is SH-SY5Y cells. The series is described as follows: Cytotoxicity, MTT assay. The note with it: 750 nM, 24 h incubation, triplicate, three independent experiments. In kind it is cell-based. An excerpt:
(§1) Finally, we studied the controlled labelling of the stapled peptides. The goal was to selectively attach a fluorophore to the C-terminal amino acid to trace cellular permeabilization and localization. Thus, we linked a Bodipy residue to cyclopeptide 2j through an amino spacer (the novel Bodipy construct was designed and prepared for this purpose, see Supplementary Fig. 16 and Supplementary Methods), to get the desired labelled-stapled peptide 2j Bodipy (Fig. 4c) in a convenient manner. […] The cells treated in this manner were analysed using confocal microscopy.
(§2) Supplementary Figure 17 Cytotoxicity of 1j-Bodipy and 2j-Bodipy peptides using the MTT assay. The toxicity assay was carried out as described in the literature.13 SH-SY5Y cells were transferred to 96-well plates (100 μL medium/well) at a density of 5000 cell/well. After 24 h, cells in triplicate were treated either with 1j-Bodipy or 2j-Bodipy (750 nM and 50 µM) or TRITON 0.2% as positive control for 24 h. Values are represented as means ± SD from three independent experiments.
(§3) Supplementary Figure 18 FACS analysis of SH-SY5Y cells upon incubation with 1j-Bodipy and 2j-Bodipy. For FACS analysis, SH-SY5Y cells were seeded on a plastic 24 well plate and cultured for 24 h. […] Fluorescence sorting was performed with a Gallios Beckman Coulter flow […]
In general terms: Tetrazolium assays rely on reduction of a dye to a coloured formazan, in cell work by metabolically active cells.

For series [4], the system named is SH-SY5Y cells. The series is described as follows: Cell penetration and localization (FACS flow cytometry and confocal microscopy). In kind it is cell-based. The note with it: 750 nM.
Excerpt: as §1, §2, §3
On the technique in general: A flow cytometer gives signals particle by particle.

The conditions of series [5]: cc_pd bond.
The subject of series [6] is several cancer cell lines. In words: Preliminary biological studies against several cancer cell lines. It counts as cell-based. An excerpt:
Nevertheless, the protocol seems general and offers new possibilities for peptide-based conjugation.

The subject of series [7] is α-chymotrypsin. In words: chymotrypsin-based protocol. The note with it: up to 6 h.

In the case of `CC(=O)N[C@@H](Cc1cccc(I)c1)C(=O)N[C@@H](CC(N)=O)C(=O)NCC(=O)N[C@@H](CCCNC(=N)N)C(=O)N[C@@H](Cc1c[nH]c2ccccc12)C(N)=O` [1g, Ac-m-I-Phe-Asn-Gly-Arg-Trp-NH2] (Ac-[Phe(3-I)]NGRW-NH2), in series [1], the half-life is 19.8 min and the “protection towards enzymatic degradation (in words)” value is “completely disappeared”.
With `CC(=O)N[C@@H](Cc1cccc(I)c1)C(=O)N[C@@H](CCCNC(=N)N)C(=O)NCC(=O)N[C@@H](CC(=O)O)C(=O)N[C@@H](Cc1c[nH]c2ccccc12)C(N)=O` [1h, Ac-m-I-Phe-Arg-Gly-Asp-Trp-NH2] (Ac-[Phe(3-I)]RGDW-NH2), in series [1], the half-life worked out at 52.5 min and the “protection towards enzymatic degradation (in words)” value is “completely disappeared”. In addition, the EC50 in series [2] (preliminary studies, ανβ3 integrin antagonism, read-out: EC50, capacity to inhibit cellular adhesion) amounted to 26 µM.
In the case of `CC(=O)N[C@H]1Cc2cccc(c2)-c2[nH]c3ccccc3c2C[C@@H](C(N)=O)NC(=O)[C@H](CC(=O)O)NC(=O)CNC(=O)[C@H](CCCNC(=N)N)NC1=O` [2h], in series [1], the “protection towards enzymatic degradation (in words)” value is given as “almost total protection”. Also, the “selectivity ανβ3 versus ανβ5 integrin receptors (in words)” value in series [2] (preliminary cellular adhesion studies) is “act selectively as antagonists for the ανβ3 in front of ανβ5 integrin receptors”.
Consider `CC(=O)N[C@@H](C)C(=O)N[C@H]1Cc2cccc(c2)-c2[nH]c3ccccc3c2C[C@@H](C(=O)N[C@@H](C)C(=O)NCCNC(=O)CCC(=O)Nc2ccc(C3=C4C(C)=CC(C)=[N+]4[B-](F)(F)n4c(C)cc(C)c43)cc2)NC(=O)[C@H](C(C)C)NC1=O` [2j Bodipy], for which the “cytotoxicity (in words)” value in series [3] is “low cytotoxicity”. Further, the “cellular localization / penetration (in words)” value in series [4] (incubation 30 min at 37 °C, confocal microscopy, fluorescence) is “localized both in the membrane and in the cytoplasmatic region”. Besides, the “cell staining in flow cytometry (FACS) (in words)” value in series [4] (incubation for 30 min, 37 °C, 5% CO2, fluorescence) is “brightly stained”.
`CC(=O)N[C@@H](C)C(=O)N[C@H]1Cc2ccccc2-c2[nH]c3ccccc3c2C[C@@H](C(=O)N[C@@H](C)C(=O)O)NC1=O` [Ac-Ala-Phe(2-I)-Trp-Ala-OH?]: the ring closure, conversion in series [5] (from Ac-Ala-Phe(2-I)-Trp-Ala-OH?, 10-membered ring, Pd(OAc)2/AgBF4/TFA?) was found to be 0%.
`CC(=O)N[C@@H](C)C(=O)N[C@H]1Cc2cccc(c2)-c2[nH]c3ccccc3c2C[C@@H](C(=O)N[C@@H](C)C(=O)O)NC(=O)[C@H](C)NC(=O)[C@H](C)NC(=O)[C@H](C)NC1=O` [Ac-Ala-Phe(3-I)-Ala-Ala-Ala-Trp-Ala-OH] showed a ring closure, conversion in series [5] (from Ac-Ala-Phe(3-I)-Ala-Ala-Ala-Trp-Ala-OH, 20-membered ring, Pd(OAc)2 5 mol%/AgBF4/2-NO2BzOH, MW 15 min, DMF:PBS 1:1, 80.0 °C) of 100%.
`CC(=O)N[C@@H](C)C(=O)N[C@H]1Cc2cccc(c2)-c2[nH]c3ccccc3c2C[C@@H](C(=O)N[C@@H](C)C(=O)O)NC(=O)[C@H](C)NC(=O)[C@H](C)NC1=O` [Ac-Ala-Phe(3-I)-Ala-Ala-Trp-Ala-OH] had a ring closure, conversion in series [5] (from Ac-Ala-Phe(3-I)-Ala-Ala-Trp-Ala-OH, 17-membered ring, Pd(OAc)2 5 mol%/AgBF4/2-NO2BzOH, MW 15 min, DMF:PBS 1:1, 80.0 °C) of 100%.
Consider `CC(=O)N[C@@H](C)C(=O)N[C@H]1Cc2cccc(c2)-c2[nH]c3ccccc3c2C[C@@H](C(=O)N[C@@H](C)C(=O)O)NC(=O)[C@H](C)NC1=O` [Ac-Ala-Phe(3-I)-Ala-Trp-Ala-OH], for which the ring closure, conversion in series [5] (from Ac-Ala-Phe(3-I)-Ala-Trp-Ala-OH, 14-membered ring, Pd(OAc)2 5 mol%/AgBF4/2-NO2BzOH, MW 15 min, DMF:PBS 1:1, 80.0 °C) was found to be 38%.
`CC(=O)N[C@@H](C)C(=O)N[C@H]1Cc2cccc(c2)-c2[nH]c3ccccc3c2C[C@@H](C(=O)N[C@@H](C)C(=O)O)NC1=O` [Ac-Ala-Phe(3-I)-Trp-Ala-OH?] yielded a ring closure, conversion in series [5] (from Ac-Ala-Phe(3-I)-Trp-Ala-OH?, 11-membered ring, Pd(OAc)2/AgBF4/TFA?) of 60%.
In series [5] (from Ac-Ala-Phe(3-I)-Val-Trp-Ala-OH, 14-membered ring, Pd(OAc)2 5 mol%/AgBF4/TFA, MW 20 min, DMF, 55.0 mM, 90.0 °C), `CC(=O)N[C@@H](C)C(=O)N[C@H]1Cc2cccc(c2)-c2[nH]c3ccccc3c2C[C@@H](C(=O)N[C@@H](C)C(=O)O)NC(=O)[C@H](C(C)C)NC1=O` [Ac-Ala-Phe(3-I)-Val-Trp-Ala-OH] returned a ring closure, conversion of 71%.
In series [5] (from Ac-Ala-Phe(4-I)-Trp-Ala-OH, 24-membered ring, Pd(OAc)2 5 mol%/AgBF4/TFA, MW 20 min, DMF, 63.0 mM, 90.0 °C), `CC(=O)N[C@@H](C)C(=O)N[C@H]1Cc2ccc(cc2)-c2[nH]c3ccccc3c2C[C@@H](C(=O)N[C@@H](C)C(=O)O)NC(=O)[C@@H](NC(=O)[C@H](C)NC(C)=O)Cc2ccc(cc2)-c2[nH]c3ccccc3c2C[C@@H](C(=O)N[C@@H](C)C(=O)O)NC1=O` [Ac-Ala-Phe(4-I)-Trp-Ala-OH] showed a ring closure, conversion of 60%.
In the case of `CC(=O)N[C@@H](C)C(=O)N[C@H]1Cc2ccc(O)c(c2)-c2[nH]c3ccccc3c2C[C@@H](C(=O)N[C@@H](C)C(=O)O)NC(=O)[C@H](C)NC(=O)[C@H](C)NC(=O)[C@H](C)NC1=O` [Ac-Ala-Tyr(3-I)-Ala-Ala-Ala-Trp-Ala-OH], the ring closure, conversion in series [5] (from Ac-Ala-Tyr(3-I)-Ala-Ala-Ala-Trp-Ala-OH, 20-membered ring, Pd(OAc)2 5 mol%/AgBF4/2-NO2BzOH, MW 15 min, DMF:PBS 1:1, 80.0 °C) was found to be 100%.
For `CC(=O)N[C@@H](C)C(=O)N[C@H]1Cc2ccc(O)c(c2)-c2[nH]c3ccccc3c2C[C@@H](C(=O)N[C@@H](C)C(=O)O)NC(=O)[C@H](C)NC(=O)[C@H](C)NC1=O` [Ac-Ala-Tyr(3-I)-Ala-Ala-Trp-Ala-OH], the ring closure, conversion in series [5] (from Ac-Ala-Tyr(3-I)-Ala-Ala-Trp-Ala-OH, 17-membered ring, Pd(OAc)2 5 mol%/AgBF4/2-NO2BzOH, MW 15 min, DMF:PBS 1:1, 80.0 °C) turned out to be 100%.
For `CC(=O)N[C@@H](C)C(=O)N[C@H]1Cc2ccc(O)c(c2)-c2[nH]c3ccccc3c2C[C@@H](C(=O)N[C@@H](C)C(=O)O)NC(=O)[C@H](C)NC1=O` [Ac-Ala-Tyr(3-I)-Ala-Trp-Ala-OH], in series [5] (from Ac-Ala-Tyr(3-I)-Ala-Trp-Ala-OH, 14-membered ring, Pd(OAc)2 5 mol%/AgBF4/2-NO2BzOH, MW 15 min, DMF:PBS 1:1, 80.0 °C), the ring closure, conversion came out at 100%.
Turning to `CC(=O)N[C@H]1Cc2cccc(c2)-c2[nH]c3ccccc3c2C[C@@H](C(N)=O)NC(=O)[C@H](CC(=O)O)NC(=O)CNC(=O)[C@H](CCCNC(=N)N)NC1=O` [Ac-Phe(3-I)-Arg-Gly-Asp-Trp-NH2], in series [5] (from Ac-Phe(3-I)-Arg-Gly-Asp-Trp-NH2, 20-membered ring, Pd(OAc)2 5 mol%/AgBF4/TFA, MW 20 min, DMF, 49.0 mM, 90.0 °C), the ring closure, conversion is 70%.
The molecule `CC(=O)N[C@H]1Cc2cccc(c2)-c2[nH]c3ccccc3c2C[C@@H](C(N)=O)NC(=O)[C@H](CCCNC(=N)N)NC(=O)CNC(=O)[C@H](CC(N)=O)NC1=O` [Ac-Phe(3-I)-Asn-Gly-Arg-Trp-NH2] registered a ring closure, conversion in series [5] (from Ac-Phe(3-I)-Asn-Gly-Arg-Trp-NH2, 20-membered ring, Pd(OAc)2 5 mol%/AgBF4/TFA, MW 20 min, DMF, 49.0 mM, 90.0 °C) of 77%.
`C[C@H](N)C(=O)N[C@H]1Cc2cccc(c2)-c2[nH]c3ccccc3c2C[C@@H](C(=O)N[C@@H](C)C(=O)O)NC(=O)[C@H](C)NC(=O)[C@H](CO)NC1=O` [H-Ala-Phe(3-I)-Ser-Ala-Trp-Ala-OH] returned a ring closure, conversion in series [5] (from H-Ala-Phe(3-I)-Ser-Ala-Trp-Ala-OH, 17-membered ring, Pd(OAc)2 5 mol%/AgBF4/TFA, MW 20 min, DMF, 54.0 mM, 90.0 °C) of 39%.
`C[C@@H]1NC(=O)[C@H](CCCNC(=N)N)NC(=O)CNC(=O)[C@H](CC(N)=O)NC(=O)[C@H](C)NC(=O)[C@H](Cc2c[nH]c3ccccc23)NC1=O` [compound 3] (cyclo(ANGRAW)): the “activity against several cancer cell lines (in words)” value in series [6] is “only the cyclopeptide 4 showed activity”.
Consider `CC(C)C[C@@H]1NC(=O)[C@H](Cc2ccc(I)cc2)NC(=O)[C@H](CC(C)C)NC(=O)[C@H](C(C)C)NC(=O)[C@H](CC(C)C)NC1=O` [compound 4] (cyclo(LLVL[Phe(4-I)])), for which, in series [6], the IC50 was less than 10 µM.
Consider Ac-[Phe(3-I)]NGRW-NH2, for which the cleaved bond result in series [7] is recorded as “m-I-Phe-Asn”.
Same read-out and setting: as for Ac-[Phe(3-I)]RGDW-NH2, the entry is “m-I-Phe-Arg”.

For the origin of these results see publication PMC4455059 (Nature Communications, 2015).
